Results: the supplement of paper PMC10307832

Key:
Test in all cases: relative viability (nuclei count vs DMSO), 5 days (fraction); higher = more cells survive
[1] = tested on: NCI-H1666
Method in brief: (§1)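 Values are medians from duplicate plates. Each reflects relative viability, defined as the nuclei count of treated wells over that of vehicle wells. Lung cancer cell lines in 1536-well plates were pin-tool dosed one day after seeding with one drug alone or with a fixed anchor-drug dose plus five library-drug doses (not always all listed) in √10 steps, then fixed, stained and imaged at 4× after 5 days.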

[2] = tested on: NCI-H1755
Method in brief: as §1

[3] = tested on: NCI-H520
Method in brief: as §1

[4] = tested on: NCI-H322M
Method in brief: as §1

[5] = tested on: NCI-H2347
Method in brief: as §1

[6] = tested on: SK-LU-1
Method in brief: as §1

[7] = tested on: NCI-H1395
Method in brief: as §1

[8] = tested on: HCC-827
Method in brief: as §1

[9] = tested on: CAL-12T
Method in brief: as §1

[10] = tested on: RERF-LC-KJ
Method in brief: as §1

[11] = tested on: NCI-H1793
Method in brief: as §1

[12] = tested on: ABC-1
Method in brief: as §1

[13] = tested on: NCI-H2126
Method in brief: as §1

[14] = tested on: ChaGo-K-1
Method in brief: as §1

[15] = tested on: NCI-H3122
Method in brief: as §1

[16] = tested on: NCI-H358
Method in brief: as §1

[17] = tested on: LU99A
Method in brief: as §1

[18] = tested on: NCI-H1944
Method in brief: as §1

[19] = tested on: LCLC-103H
Method in brief: as §1

[20] = tested on: LXF-289
Method in brief: as §1

CCNC(=O)c1noc(-c2cc(C(C)C)c(O)cc2O)c1-c1ccc(CN2CCOCC2)cc1 [Luminespib] + COc1cc2c(Oc3ccc(NC(=O)C4(C(=O)Nc5ccc(F)cc5)CC4)cc3F)ccnc2cc1OCCCN1CCOCC1 [Foretinib] (partner 0.25 µM)
relative viability ([1]; first compound 0.002 µM): 0.988 | relative viability ([1]; first compound 0.006325 µM): 0.904 | relative viability ([1]; first compound 0.02 µM): 0.986 | relative viability ([1]; first compound 0.06325 µM): 0.94 | relative viability ([1]; first compound 0.2 µM): 0.967 | relative viability ([2]; first compound 0.002 µM): 0.874 | relative viability ([2]; first compound 0.006325 µM): 0.946 | relative viability ([2]; first compound 0.02 µM): 0.948 | relative viability ([2]; first compound 0.06325 µM): 0.555 | relative viability ([2]; first compound 0.2 µM): 0.305 | relative viability ([3]; first compound 0.002 µM): 1.09 | relative viability ([3]; first compound 0.006325 µM): 0.659 | relative viability ([3]; first compound 0.02 µM): 0.651 | relative viability ([3]; first compound 0.06325 µM): 0.147 | relative viability ([3]; first compound 0.2 µM): 0.162 | relative viability ([4]; first compound 0.002 µM): 0.932 | relative viability ([4]; first compound 0.006325 µM): 0.998 | relative viability ([4]; first compound 0.02 µM): 0.795 | relative viability ([4]; first compound 0.06325 µM): 0.323 | relative viability ([4]; first compound 0.2 µM): 0.3 | relative viability ([5]; first compound 0.002 µM): 0.987 | relative viability ([5]; first compound 0.006325 µM): 0.64 | relative viability ([5]; first compound 0.02 µM): 0.59 | relative viability ([5]; first compound 0.06325 µM): 0.922 | relative viability ([5]; first compound 0.2 µM): 0.376 | relative viability ([6]; first compound 0.002 µM): 0.825 | relative viability ([6]; first compound 0.006325 µM): 0.559 | relative viability ([6]; first compound 0.02 µM): 0.392 | relative viability ([6]; first compound 0.06325 µM): 0.131 | relative viability ([6]; first compound 0.2 µM): 0.133 | relative viability ([7]; first compound 0.002 µM): 1.04 | relative viability ([7]; first compound 0.006325 µM): 0.941 | relative viability ([7]; first compound 0.02 µM): 0.805 | relative viability ([7]; first compound 0.06325 µM): 0.568 | relative viability ([7]; first compound 0.2 µM): 0.345 | relative viability ([8]; first compound 0.002 µM): 1.06 | relative viability ([8]; first compound 0.006325 µM): 0.971 | relative viability ([8]; first compound 0.02 µM): 0.869 | relative viability ([8]; first compound 0.06325 µM): 0.692 | relative viability ([8]; first compound 0.2 µM): 0.152 | relative viability ([9]; first compound 0.002 µM): 1.25 | relative viability ([9]; first compound 0.006325 µM): 1.15 | relative viability ([9]; first compound 0.02 µM): 0.824 | relative viability ([9]; first compound 0.06325 µM): 0.127 | relative viability ([9]; first compound 0.2 µM): 0.128 | relative viability ([10]; first compound 0.002 µM): 0.875 | relative viability ([10]; first compound 0.006325 µM): 0.832 | relative viability ([10]; first compound 0.02 µM): 0.71 | relative viability ([10]; first compound 0.06325 µM): 0.861 | relative viability ([10]; first compound 0.2 µM): 0.445 | relative viability ([11]; first compound 0.002 µM): 0.739 | relative viability ([11]; first compound 0.006325 µM): 0.892 | relative viability ([11]; first compound 0.02 µM): 0.472 | relative viability ([11]; first compound 0.06325 µM): 0.551 | relative viability ([11]; first compound 0.2 µM): 0.189 | relative viability ([12]; first compound 0.002 µM): 1.08 | relative viability ([12]; first compound 0.006325 µM): 0.881 | relative viability ([12]; first compound 0.02 µM): 0.859 | relative viability ([12]; first compound 0.06325 µM): 0.583 | relative viability ([12]; first compound 0.2 µM): 0.206 | relative viability ([13]; first compound 0.002 µM): 0.865 | relative viability ([13]; first compound 0.006325 µM): 1.07 | relative viability ([13]; first compound 0.02 µM): 0.882 | relative viability ([13]; first compound 0.06325 µM): 0.589 | relative viability ([13]; first compound 0.2 µM): 0.207 | relative viability ([14]; first compound 0.002 µM): 0.889 | relative viability ([14]; first compound 0.006325 µM): 0.92 | relative viability ([14]; first compound 0.02 µM): 1.02 | relative viability ([14]; first compound 0.06325 µM): 0.37 | relative viability ([14]; first compound 0.2 µM): 0.299 | relative viability ([15]; first compound 0.002 µM): 1.07 | relative viability ([15]; first compound 0.006325 µM): 0.887 | relative viability ([15]; first compound 0.02 µM): 0.925 | relative viability ([15]; first compound 0.06325 µM): 0.0893 | relative viability ([15]; first compound 0.2 µM): 0.0769 | relative viability ([16]; first compound 0.002 µM): 0.69 | relative viability ([16]; first compound 0.006325 µM): 0.705 | relative viability ([16]; first compound 0.02 µM): 0.631 | relative viability ([16]; first compound 0.06325 µM): 0.06 | relative viability ([16]; first compound 0.2 µM): 0.0569 | relative viability ([17]; first compound 0.002 µM): 0.821 | relative viability ([17]; first compound 0.006325 µM): 0.758 | relative viability ([17]; first compound 0.02 µM): 0.527 | relative viability ([17]; first compound 0.06325 µM): 0.186 | relative viability ([17]; first compound 0.2 µM): 0.175 | relative viability ([18]; first compound 0.002 µM): 0.937 | relative viability ([18]; first compound 0.006325 µM): 0.884 | relative viability ([18]; first compound 0.02 µM): 0.653 | relative viability ([18]; first compound 0.06325 µM): 0.767 | relative viability ([18]; first compound 0.2 µM): 0.419 | relative viability ([19]; first compound 0.002 µM): 0.826 | relative viability ([19]; first compound 0.006325 µM): 0.778 | relative viability ([19]; first compound 0.02 µM): 0.757 | relative viability ([19]; first compound 0.06325 µM): 0.87 | relative viability ([19]; first compound 0.2 µM): 0.362 | relative viability ([20]; first compound 0.002 µM): 0.993 | relative viability ([20]; first compound 0.006325 µM): 0.979 | relative viability ([20]; first compound 0.02 µM): 1.2 | relative viability ([20]; first compound 0.06325 µM): 0.547 | relative viability ([20]; first compound 0.2 µM): 0.323
